Measured values from paper PMC4903021 (Organic letters, 2016).

Target: T1, CazL (Chaetomium globosum, UniProt Q2GWL0)
T1 sequence (Q2GWL0 1-455): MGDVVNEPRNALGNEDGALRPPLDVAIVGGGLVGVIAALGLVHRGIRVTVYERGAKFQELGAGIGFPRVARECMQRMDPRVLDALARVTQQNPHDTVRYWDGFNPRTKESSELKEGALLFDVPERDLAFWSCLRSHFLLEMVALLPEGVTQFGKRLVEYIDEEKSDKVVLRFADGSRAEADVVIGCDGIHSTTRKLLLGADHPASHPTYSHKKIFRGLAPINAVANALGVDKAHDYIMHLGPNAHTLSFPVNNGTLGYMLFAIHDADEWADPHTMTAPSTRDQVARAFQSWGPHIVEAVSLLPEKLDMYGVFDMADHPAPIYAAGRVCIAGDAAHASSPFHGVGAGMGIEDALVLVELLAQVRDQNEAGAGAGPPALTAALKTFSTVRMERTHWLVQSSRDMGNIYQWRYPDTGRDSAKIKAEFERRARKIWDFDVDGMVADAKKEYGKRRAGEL
Assay: initial velocity kinetics of pyranoquinone formation
Type: biochemical
Conditions: formation of 5

cazaldehyde A [compound 1]
Km: 73 ± 9.93 µM
